Tested on: P. Falciparum 3D7
Assay: SYBR Green I growth inhibition assay, 3D7 strain
Format: cell-based
Details: Plasmodium falciparum, 3D7, 72 h, read-out: P. Falciparum 3D7 IC50

Question: For `CCN(CC)CCCC(C)Nc1ccnc2cc(Cl)ccc12` (stereo not shown) [Chloroquine, chloroquine], which IC50 is on record?
Answer: 0.052 ± 0.012 µM

From paper PMC5443346 (Bioorganic & medicinal chemistry, 2017)
